These results are taken from US8436180B2, “Substituted-4-aryl-1,4-dihydro-1,6-naphthyridinamides and use thereof” (Bayer Intellectual Property GmbH, priority 2007, dated 2013).

Assay [1] addresses T1, human mineralocorticoid receptor (MR) (Homo sapiens, UniProt P08235).
T1 construct: expressed in transfected cells; host or cells: CHO K1 (Chinese hamster ovary), stably transfected
T1 sequence (P08235 734-984 limits assumed): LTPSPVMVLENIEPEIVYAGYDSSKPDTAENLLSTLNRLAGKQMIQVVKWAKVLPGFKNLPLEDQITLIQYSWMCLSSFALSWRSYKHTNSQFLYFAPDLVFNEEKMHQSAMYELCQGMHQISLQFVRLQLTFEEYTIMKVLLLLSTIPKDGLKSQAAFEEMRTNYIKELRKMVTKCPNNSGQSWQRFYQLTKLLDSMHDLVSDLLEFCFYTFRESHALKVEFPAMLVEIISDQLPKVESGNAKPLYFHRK
The experiment in a line: Cellular in vitro assay to determine the inhibitory MR activity (GAL4-MR chimera luciferase reporter in CHO K1 cells). Format: cell-based. The note with it: antagonism of aldosterone-stimulated luciferase activity. The source says: 1. Cellular In Vitro Assay to Determine the Inhibitory MR Activity and MR Selectivity Compared with Other Steroid Hormone Receptors
Antagonists of the human mineralocorticoid receptor (MR) are identified, and the activity of the compounds described herein is quantified with the aid of a recombinant cell line. The cell is originally derived from a hamster ovary epithelial cell (Chinese Hamster Ovary, CHO K1, ATCC: American Type Culture Collection, VA 20108, USA).
An established chimera system in which the ligand-binding domains of human steroid hormone receptors are fused to the DNA-binding domain of the yeast transcription factor GAL4 is used in this CHO K1 cell line. The GAL4-steroid hormone receptor chimeras produced in this way are cotransfected and stably expressed with a reporter construct in the CHO cells.
To generate the GAL4-steroid hormone receptor chimeras, the GAL4 DNA binding domain (amino acids 1-147) from the vector pFC2-dbd (from Stratagene) is cloned with the PCR-amplified ligand-binding domains of the mineralocorticoid receptor (MR, amino acids 734-985), of the glucocorticoid receptor (GR, amino acids 443-777), of the progesterone receptor (PR, amino acids 680-933) and of the androgen receptor (AR, amino acids 667-919) into the vector pIRES2 (from Clontech). […]
The MR, GR, PR and AR cells are plated out in medium (Optimem, 2.5% FCS, 2 mM glutamine, 10 mM HEPES) in 96- (or 384- or 1536-) well microtiter plates on the day before the assay and are kept in a cell incubator (96% humidity, 5% v/v CO2, 37° C.). […] After a further incubation time of 5 to 6 hours, the luciferase activity is measured with the aid of a video camera. The measured relative light units as a function of the substance concentration result in a sigmoidal stimulation curve. The IC50 values are calculated with the aid of the GraphPad PRISM computer program (Version 3.02).

Assay [2] concerns aldosterone-induced sodium retention. Put plainly: In vivo assay for detecting anti-mineralocorticoid activity on anesthetized dogs. On the set-up: species or system dog. The note with it: anesthetized dogs under continuous aldosterone infusion (0.6 μg/kg/h); positive control.
Procedure: In Vivo Assay for Detecting Anti-Mineralocorticoid Activity on Anesthetized Dogs
Male or female mongrel dogs (mongrels, Marshall BioResources, USA) with a weight between 20 and 30 kilograms are anesthetized with pentobarbital (30 mg/kg intravenously; Narcoren®, Merial, Germany). Alcuronium chloride (3 mg/animal intravenously; Alloferin®, ICN Pharmaceuticals, Germany) is used in addition as muscle relaxant. The dogs are intubated and ventilated with an oxygen/ambient air mixture (40/60 Vol.-%) (about 5-6 liters/min). The ventilation takes place with a ventilator supplied by Draeger (Sulla 808) and is monitored with a CO2 analyzer (from Engstrom). […]
The primary aim of the test is to investigate the effect of test compounds with antimineralocorticoid receptor activity on the aldosterone-induced sodium retention. […] A continuous infusion of aldosterone (0.6 μg/kg/h) leads after 3 hours to a decrease in the sodium/potassium ratio in the urine (sodium and potassium are determined by flame photometry). […]
The primary signals are amplified if necessary (Gould amplifier, Gould Instrument Systems, Valley View, USA or Edwards Vigilance-Monitor, Edwards, Irvine, USA) and subsequently fed into the Ponemah system (DataSciences Inc., Minneapolis, USA) for analysis. The signals are recorded continuously throughout the test period, further processed digitally by this software and averaged over 30 seconds.

A word on the IC50: it is the concentration needed to halve the response being measured. Lower therefore signals inhibition by little substance. Regarding `CCOc1ncc(C)c2c1C(c1ccc(C#N)cc1OC)C(C(N)=O)=C(C)N2` (racemic) [Example 4, 4-(4-Cyano-2-methoxyphenyl)-5-ethoxy-2,8-dimethyl-1,4-dihydro-1,6-naphthyridine-3-carboxamide], in assay [1], the midpoint of inhibition, the IC50, lay at 23 nM. In assay [1], `CCOc1ncc(C)c2c1[C@H](c1ccc(C#N)cc1OC)C(C(N)=O)=C(C)N2` [5 [(−)-enantiomer]] returned an IC50 of 16 nM. The compound `CCOc1nccc2c1C(c1ccc(C#N)cc1OC)C(C(N)=O)=C(C)N2` (stereo not shown) [Example 1, 4-(4-Cyano-2-methoxyphenyl)-5-ethoxy-2-methyl-1,4-dihydro-1,6-naphthyridine-3-carboxamide] came in with an IC50 in assay [1] of 35 nM. This IC50 is about 2.2-fold higher than that of the compound before.

Regarding `CC(=O)S[C@@H]1CC2=CC(=O)CC[C@]2(C)[C@H]2CC[C@@]3(C)[C@@H](CC[C@@]34CCC(=O)O4)[C@H]12` [Spironolactone], in assay [2], the “sodium/potassium ratio in the urine” value is recorded as “increases the sodium/potassium ratio in the urine dose-dependently”.
